Laboratory results from BindingDB's records for PubMed 10617681 (Dupont Pharmaceuticals, 2000).

Assays:
[1] = molecular target: 5-hydroxytryptamine receptor 2B (Homo sapiens, UniProt P41595)
[2] = molecular target: T1, 5-hydroxytryptamine receptor 2C (Homo sapiens, UniProt P28335)
T1 sequence (P28335 whole entry): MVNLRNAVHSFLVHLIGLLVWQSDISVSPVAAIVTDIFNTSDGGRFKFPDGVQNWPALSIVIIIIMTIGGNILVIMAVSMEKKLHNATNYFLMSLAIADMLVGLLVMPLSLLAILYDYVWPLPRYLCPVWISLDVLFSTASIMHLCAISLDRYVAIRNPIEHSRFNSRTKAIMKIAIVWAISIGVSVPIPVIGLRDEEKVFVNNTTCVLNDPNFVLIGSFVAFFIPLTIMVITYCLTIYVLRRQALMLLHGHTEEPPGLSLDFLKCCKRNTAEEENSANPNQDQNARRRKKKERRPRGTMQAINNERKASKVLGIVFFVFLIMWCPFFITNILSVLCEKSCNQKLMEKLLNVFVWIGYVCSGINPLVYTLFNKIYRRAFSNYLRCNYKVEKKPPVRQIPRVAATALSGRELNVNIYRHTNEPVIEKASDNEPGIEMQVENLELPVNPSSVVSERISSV

Chain of 5-hydroxytryptamine receptor 2B (P41595 whole entry): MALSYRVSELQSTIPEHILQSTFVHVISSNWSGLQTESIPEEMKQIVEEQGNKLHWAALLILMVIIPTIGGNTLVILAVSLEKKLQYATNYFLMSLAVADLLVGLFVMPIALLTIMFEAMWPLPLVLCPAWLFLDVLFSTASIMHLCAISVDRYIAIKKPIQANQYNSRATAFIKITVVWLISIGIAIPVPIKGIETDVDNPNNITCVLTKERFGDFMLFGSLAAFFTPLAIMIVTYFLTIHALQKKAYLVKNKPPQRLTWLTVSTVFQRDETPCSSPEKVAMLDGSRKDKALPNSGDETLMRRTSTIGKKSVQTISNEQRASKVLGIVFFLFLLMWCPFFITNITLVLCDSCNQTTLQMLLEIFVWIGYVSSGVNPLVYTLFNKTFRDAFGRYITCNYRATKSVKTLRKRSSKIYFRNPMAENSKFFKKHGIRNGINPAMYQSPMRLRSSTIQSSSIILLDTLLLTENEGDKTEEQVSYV

| SMILES | Ki [1] | Ki [2] |
| --- | --- | --- |
| C[C@@H](N)Cc1cccc(C(F)(F)F)c1 [l-norfenfluramine] | 65 nM | 99 nM |
| C[C@H](N)Cc1cccc(C(F)(F)F)c1 [Norfenfluramine (+)] | 27 nM | 56 nM |
